From patent US20130252935A1, “Monobactams” (PFIZER INC., priority 2010, published 2013)
Converted amounts (≈) assume the structure as drawn.

Key:
Type in all cases: cell-based
[1] = test system: Klebsiella pneumoniae 1000-02; experiment: minimum inhibitory concentration (MIC) testing according to CLSI guidelines, Klebsiella pneumoniae; details: ciprofloxacin-resistant, ESBL-expressing clinical isolate 1000-02, overnight incubation, lower of duplicate values; for MIC: Klebsiella pneumoniae, read-out: AB-MBT: Klebsiella pneumoniae 1000-02: MIC (MstRcnt)
Method in brief: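 MIC by CLSI broth dilution with 2-fold concentration steps and overnight incubation; lowest concentration visibly inhibiting growth versus drug-free control. Ciprofloxacin-resistant, ESBL-expressing clinical isolate 1000-02. Run in duplicate, lower value reported when within 2-fold, with QC organisms and reference compounds per run.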

[2] = test system: Pseudomonas aeruginosa UC-12120; experiment: minimum inhibitory concentration (MIC) testing according to CLSI guidelines, Pseudomonas aeruginosa; details: UC-12120, wild-type, labeled as 1091-05, overnight incubation, lower of duplicate values; for MIC: Pseudomonas aeruginosa, UC12120, read-out: AB-MBT: Pseudomonas aeruginosa 1091-05: MIC (MstRcn)
Method in brief: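 Broth dilution MIC per CLSI guidelines against wild-type P. aeruginosa UC-12120 (1091-05), using 2-fold drug dilutions and overnight incubation with visual reading of lowest growth-inhibiting concentration. Tested in duplicate; lower value reported when within 2-fold, with control organisms and reference compounds for quality control.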

[3] = test system: Acinetobacter baumannii/haemolyticus AB-3167; experiment: minimum inhibitory concentration (MIC) testing according to CLSI guidelines, Acinetobacter; details: multidrug-resistant clinical isolate AB-3167, overnight incubation, lower of duplicate values; for MIC: Acinetobacter baumannii, read-out: AB-MBT: Acinetobacter baumanii AB-3167: MIC (MstRcnt)
Method in brief: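 Broth dilution MIC per CLSI M7-A8/M100-S20 against multidrug-resistant clinical isolate AB-3167, using 2-fold drug dilutions and overnight incubation; MIC is the lowest concentration without visible growth. Duplicates within 2-fold reported as the lower value, with control strains and reference compounds in range.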

Row | Structure (SMILES) | MIC [1] | MIC [2] | MIC [3] | AB-MBT: Klebsiella pneumoniae 1000-02: MIC (MstRcnt) [1] | AB-MBT: Pseudomonas aeruginosa 1091-05: MIC (MstRcn) [2] | AB-MBT: Acinetobacter baumanii AB-3167: MIC (MstRcnt) [3]
1 | CC(C)(O/N=C(\C(=O)N[C@@H]1C(=O)N(S(=O)(=O)[O-])[C@@H]1CNC(=O)OCc1cc(=O)c(O)cn1O)c1csc(N)n1)C(=O)[O-].[Na+].[Na+] [Example 5, disodium 2-({[(1Z)-1-(2-amino-1,3-thiazol-4-yl)-2-({(2R,3S)-2-[({[(1,5-dihydroxy-4-oxo-1,4-dihydropyridin-2-yl)methoxy]carbonyl}amino)methyl]-4-oxo-1-sulfonatoazetidin-3-yl}amino)-2-oxoethylidene]amino}oxy)-2-methylpropanoate] | 4 µg/mL | 0.125 µg/mL | 1 µg/mL | – | – | –
2 | CC(C)(O/N=C(\C(=O)N[C@@H]1C(=O)N(S(=O)(=O)O)[C@@H]1CNC(=O)c1cccc(C(=O)NCc2cc(=O)c(O)cn2O)c1)c1csc(N)n1)C(=O)O [Example 44, 2-({[(1Z)-1-(2-amino-1,3-thiazol-4-yl)-2-{[(2R,3S)-2-{[(3-{[(1,5-dihydroxy-4-oxo-1,4-dihydropyridin-2-yl)methyl]carbamoyl}benzoyl)amino]methyl}-4-oxo-1-sulfoazetidin-3-yl]amino}-2-oxoethylidene]amino}oxy)-2-methylpropanoic acid] | 0.25 µg/mL (≈ 0.339 µM) | 0.25 µg/mL (≈ 0.339 µM) | 0.25 µg/mL (≈ 0.339 µM) | – | – | –
3 | CC(C)(O/N=C(\C(=O)N[C@@H]1C(=O)N(S(=O)(=O)O)[C@@H]1CNS(=O)(=O)c1cccc(C(=O)NCc2cc(=O)c(O)cn2O)c1)c1csc(N)n1)C(=O)O [Example 68, 2-({[(1Z)-1-(2-amino-1,3-thiazol-4-yl)-2-{[(2R,3S)-2-({[(3-{[(1,5-dihydroxy-4-oxo-1,4-dihydropyridin-2-yl)methyl]carbamoyl}phenyl)sulfonyl]amino}methyl)-4-oxo-1-sulfoazetidin-3-yl]amino}-2-oxoethylidene]amino}oxy)-2-methylpropanoic acid] | 1 µg/mL (≈ 1.29 µM) | 4 µg/mL (≈ 5.18 µM) | 4 µg/mL (≈ 5.18 µM) | – | – | –
4 | CC(C)(O/N=C(\C(=O)N[C@@H]1C(=O)N(S(=O)(=O)O)[C@@H]1CNC(=O)c1ccc(CNC(=O)c2cc(O)c(O)cn2)cc1)c1csc(N)n1)C(=O)O [Example 51, 2-({[(1Z)-1-(2-amino-1,3-thiazol-4-yl)-2-{[(2R,3S)-2-({[4-({[(4,5-dihydroxypyridin-2-yl)carbonyl]amino}methyl)benzoyl]amino}methyl)-4-oxo-1-sulfoazetidin-3-yl]amino}-2-oxoethylidene]amino}oxy)-2-methylpropanoic acid] | 2 µg/mL (≈ 2.78 µM) | 0.125 µg/mL (≈ 0.173 µM) | 1 µg/mL (≈ 1.39 µM) | – | – | –
5 | Nc1nc(/C(=N/OC2(C(=O)O)CCC2)C(=O)N[C@@H]2C(=O)N(S(=O)(=O)O)[C@@H]2CNC(=O)c2cccc(C(=O)NCc3cc(=O)c(O)cn3O)c2)cs1 [Example 64, 1-({[(1Z)-1-(2-amino-1,3-thiazol-4-yl)-2-{[(2R,3S)-2-{[(3-{[(1,5-dihydroxy-4-oxo-1,4-dihydropyridin-2-yl)methyl]carbamoyl}benzoyl)amino]methyl}-4-oxo-1-sulfoazetidin-3-yl]amino}-2-oxoethylidene]amino}oxy)cyclobutanecarboxylic acid] | 0.25 µg/mL (≈ 0.334 µM) | 1 µg/mL (≈ 1.34 µM) | 0.5 µg/mL (≈ 0.668 µM) | – | – | –
6 | CC(C)(O/N=C(\C(=O)N[C@@H]1C(=O)N(S(=O)(=O)O)[C@@H]1CNC(=O)c1ccnc(-c2cc(=O)c(O)c[nH]2)n1)c1csc(N)n1)C(=O)O [Example 22, 2-({[(1Z)-1-(2-amino-1,3-thiazol-4-yl)-2-({(2R,3S)-2-[({[2-(5-hydroxy-4-oxo-1,4-dihydropyridin-2-yl)pyrimidin-4-yl]carbonyl}amino)methyl]-4-oxo-1-sulfoazetidin-3-yl}amino)-2-oxoethylidene]amino}oxy)-2-methylpropanoic acid] | 32 µg/mL (≈ 48.1 µM) | 4 µg/mL (≈ 6.01 µM) | 16 µg/mL (≈ 24 µM) | – | – | –
7 | Nc1nc(/C(=N/OC2(C(=O)O)CCC2)C(=O)N[C@@H]2C(=O)N(S(=O)(=O)O)[C@@H]2CNC(=O)CCC(=O)NCc2cc(=O)c(O)cn2O)cs1 [Example 60, 1-({[(1Z)-1-(2-amino-1,3-thiazol-4-yl)-2-{[(2R,3S)-2-{[(4-{[(1,5-dihydroxy-4-oxo-1,4-dihydropyridin-2-yl)methyl]amino}-4-oxobutanoyl)amino]methyl}-4-oxo-1-sulfoazetidin-3-yl]amino}-2-oxoethylidene]amino}oxy)cyclobutanecarboxylic acid] | 0.5 µg/mL (≈ 0.714 µM) | 0.125 µg/mL (≈ 0.178 µM) | 0.25 µg/mL (≈ 0.357 µM) | – | – | –
8 | Nc1nc(/C(=N/OC2(C(=O)O)CCC2)C(=O)N[C@@H]2C(=O)N(S(=O)(=O)O)[C@@H]2CNC(=O)C(=O)NCc2cc(=O)c(O)cn2O)cs1 [Example 65, 1-({[(1Z)-1-(2-amino-1,3-thiazol-4-yl)-2-{[(2R,3S)-2-({[{[(1,5-dihydroxy-4-oxo-1,4-dihydropyridin-2-yl)methyl]amino}(oxo)acetyl]amino}methyl)-4-oxo-1-sulfoazetidin-3-yl]amino}-2-oxoethylidene]amino}oxy)cyclobutanecarboxylic acid] | 0.25 µg/mL (≈ 0.372 µM) | 0.06 µg/mL (≈ 0.0892 µM) | 0.125 µg/mL (≈ 0.186 µM) | – | – | –
9 | Nc1nc(/C(=N/OC2(C(=O)O)CCC2)C(=O)N[C@@H]2C(=O)N(S(=O)(=O)O)[C@@H]2CNC(=O)c2ccc(CNC(=O)c3cc(=O)c(O)cn3O)cc2)cs1 [Example 62, 1-({[(1Z)-1-(2-amino-1,3-thiazol-4-yl)-2-{[(2R,3S)-2-({[4-({[(1,5-dihydroxy-4-oxo-1,4-dihydropyridin-2-yl)carbonyl]amino}methyl)benzoyl]amino}methyl)-4-oxo-1-sulfoazetidin-3-yl]amino}-2-oxoethylidene]amino}oxy)cyclobutanecarboxylic acid] | 1 µg/mL (≈ 1.34 µM) | 2 µg/mL (≈ 2.67 µM) | 0.5 µg/mL (≈ 0.668 µM) | – | – | –
10 | CC(C)(O/N=C(\C(=O)N[C@@H]1C(=O)N(S(=O)(=O)O)[C@@H]1CNC(=O)C(=O)NCC1=CC(=O)C(O)=CC1O)c1csc(N)n1)C(=O)O (stereo partly drawn) [Example 41, 2-({[(1Z)-1-(2-amino-1,3-thiazol-4-yl)-2-{[(2R,3S)-2-({[{[(4,6-dihydroxy-3-oxocyclohexa-1,4-dien-1-yl)methyl]amino}(oxo)acetyl]amino}methyl)-4-oxo-1-sulfoazetidin-3-yl]amino}-2-oxoethylidene]amino}oxy)-2-methylpropanoic acid] | 0.5 µg/mL (≈ 0.758 µM) | 0.06 µg/mL (≈ 0.091 µM) | 0.25 µg/mL (≈ 0.379 µM) | – | – | –
11 | CC(C)(O/N=C(\C(=O)N[C@@H]1C(=O)N(S(=O)(=O)O)[C@@H]1CNC(=O)c1cnc(-c2cc(=O)c(O)c[nH]2)nc1)c1csc(N)n1)C(=O)O [Example 24, 2-({[(1Z)-1-(2-amino-1,3-thiazol-4-yl)-2-({(2R,3S)-2-[({[2-(5-hydroxy-4-oxo-1,4-dihydropyridin-2-yl)pyrimidin-5-yl]carbonyl}amino)methyl]-4-oxo-1-sulfoazetidin-3-yl}amino)-2-oxoethylidene]amino}oxy)-2-methylpropanoic acid] | 16 µg/mL (≈ 24 µM) | 1 µg/mL (≈ 1.5 µM) | 2 µg/mL (≈ 3 µM) | – | – | –
12 | CC(C)(O/N=C(\C(=O)N[C@@H]1C(=O)N(S(=O)(=O)O)[C@@H]1CNC(=O)c1ccc(S(=O)(=O)NCc2cc(=O)c(O)cn2O)cc1)c1csc(N)n1)C(=O)O [Example 39] | – | – | – | 1.00 µg/mL | 0.250 µg/mL | 0.500 µg/mL
13 | Nc1nc(/C(=N/OC2(C(=O)O)CCCCC2)C(=O)N[C@@H]2C(=O)N(S(=O)(=O)O)[C@@H]2CNC(=O)NCc2cc(=O)c(O)cn2O)cs1 [Example 28, 1-({[(1Z)-1-(2-amino-1,3-thiazol-4-yl)-2-({(2R,3S)-2-[({[(1,5-dihydroxy-4-oxo-1,4-dihydropyridin-2-yl)methyl]carbamoyl}amino)methyl]-4-oxo-1-sulfoazetidin-3-yl}amino)-2-oxoethylidene]amino}oxy)cyclohexanecarboxylic acid] | 0.5 µg/mL (≈ 0.743 µM) | 1 µg/mL (≈ 1.49 µM) | 1 µg/mL (≈ 1.49 µM) | – | – | –
14 | CC(C)(O/N=C(\C(=O)N[C@@H]1C(=O)N(S(=O)(=O)[O-])[C@@H]1CNC(=O)c1cc(-c2cc(=O)c(O)cn2O)no1)c1csc(N)n1)C(=O)[O-].[Na+].[Na+] [Example 15, 2-({[(1Z)-1-(2-amino-1,3-thiazol-4-yl)-2-({(2R,3S)-2-[({[3-(1,5-dihydroxy-4-oxo-1,4-dihydropyridin-2-yl)isoxazol-5-yl]carbonyl}amino)methyl]-4-oxo-1-sulfoazetidin-3-yl}amino)-2-oxoethylidene]amino}oxy)-2-methylpropanoic acid, bis sodium salt] | – | – | – | 1.00 µg/mL | 0.250 µg/mL | 0.250 µg/mL
15 | CC(C)(O/N=C(\C(=O)N[C@@H]1C(=O)N(S(=O)(=O)O)[C@@H]1CNC(=O)c1csc(-c2cc(=O)c(O)c[nH]2)n1)c1csc(N)n1)C(=O)O [Example 20, 2-({[(1Z)-1-(2-amino-1,3-thiazol-4-yl)-2-({(2R,3S)-2-[({[2-(5-hydroxy-4-oxo-1,4-dihydropyridin-2-yl)-1,3-thiazol-4-yl]carbonyl}amino)methyl]-4-oxo-1-sulfoazetidin-3-yl}amino)-2-oxoethylidene]amino}oxy)-2-methylpropanoic acid] | 0.5 µg/mL (≈ 0.746 µM) | 1 µg/mL (≈ 1.49 µM) | 1 µg/mL (≈ 1.49 µM) | – | – | –
